# From US8962808B2, “EGFR-related polypeptides and methods of use” (The Research Foundation for the State University of New York, priority 2010, dated 2015)
# Legend:
# [1] = system: cancer cells with EGFRvIII expression; conditions: literature reports; cited from earlier work
# [2] = system: non-small cell lung cancer; conditions: NSCLC patients with activating mutations in the EGFR tyrosine kinase domain; cited from earlier work
# SY5Y = assay: IP-western of phosphorylation status of GFP-tagged EGFR mutants in SY5Y cells; type: cell-based, human; conditions: anti-GFP IP, higher than EGFRvIII, FIG. 7D
# From the text: Then, we prepared RNA and protein lysates from the transfected cells. We confirmed the identity of the lysates by RT-PCR (FIG. 7C). Next, we evaluated the phosphorylation status of both mutants. Because SY5Y cells expressed endogenous WT-EGFR (21, 22), we used anti-GFP antibody to immunoprecipitate the mutant EGFR polypeptides.
# NIH 3T3 cells = assay: Western blot of phosphorylation of GFP-tagged EGFRΔ[…] versus WT-EGFR in NIH 3T3 cells; type: cell-based; conditions: no ligand, FIG. 7A
# From the text: Dafna Bar-Sagi). Then, we subcloned the novel extracellular deletion mutant Δ[…] into this vector. […]
compound,measurement,setting,value
C#Cc1cccc(Nc2ncnc3cc(OCCOC)c(OCCOC)cc23)c1 [erlotinib],sensitivity of cancer cells with EGFRvIII expression,[1],not as sensitive
COc1cc2ncnc(Nc3ccc(F)c(Cl)c3)c2cc1OCCCN1CCOCC1 [gefitinib],patient response,[2],dramatic response
"EGFRΔ768: truncated EGFR, in-frame deletion from nucleotide 102 of exon 2 to nucleotide 869 of exon 7","autophosphorylation level, difference versus EGFRvIII",SY5Y,~40%
same,phosphorylation in the absence of ligand (versus WT-EGFR),NIH 3T3 cells,constitutively active
